Target: T1, hTRPV1 (Homo sapiens, UniProt Q8NER1)
T1 construct: expressed in transfected cells; host or cells: HEK293
Test: Human TRPV1 (hTRPV1) functional assay, FLIPR intracellular Ca2+, capsaicin challenge
Type: cell-based
Details: HEK293 cells expressing hTRPV1, capsaicin 0.030 μM challenge; for inhibition at 0.5 µM: test concentration of 0.5 μm, read-out: percent inhibition (symbol a); for IC50: derived from a variety of test concentrations, read-out: IC50 value (symbol c)
How it was run: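 HEK293 cells expressing the channel, loaded with Calcium 3 dye, were exposed to compounds for 5 min before capsaicin 0.030 μM (~80% maximal). FLIPR Ca2+ read; IC50/EC50 from quadruplicate concentration-response, or percent inhibition at 0.5 μm or 0.2 μm.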

T1 sequence (Q8NER1 whole entry): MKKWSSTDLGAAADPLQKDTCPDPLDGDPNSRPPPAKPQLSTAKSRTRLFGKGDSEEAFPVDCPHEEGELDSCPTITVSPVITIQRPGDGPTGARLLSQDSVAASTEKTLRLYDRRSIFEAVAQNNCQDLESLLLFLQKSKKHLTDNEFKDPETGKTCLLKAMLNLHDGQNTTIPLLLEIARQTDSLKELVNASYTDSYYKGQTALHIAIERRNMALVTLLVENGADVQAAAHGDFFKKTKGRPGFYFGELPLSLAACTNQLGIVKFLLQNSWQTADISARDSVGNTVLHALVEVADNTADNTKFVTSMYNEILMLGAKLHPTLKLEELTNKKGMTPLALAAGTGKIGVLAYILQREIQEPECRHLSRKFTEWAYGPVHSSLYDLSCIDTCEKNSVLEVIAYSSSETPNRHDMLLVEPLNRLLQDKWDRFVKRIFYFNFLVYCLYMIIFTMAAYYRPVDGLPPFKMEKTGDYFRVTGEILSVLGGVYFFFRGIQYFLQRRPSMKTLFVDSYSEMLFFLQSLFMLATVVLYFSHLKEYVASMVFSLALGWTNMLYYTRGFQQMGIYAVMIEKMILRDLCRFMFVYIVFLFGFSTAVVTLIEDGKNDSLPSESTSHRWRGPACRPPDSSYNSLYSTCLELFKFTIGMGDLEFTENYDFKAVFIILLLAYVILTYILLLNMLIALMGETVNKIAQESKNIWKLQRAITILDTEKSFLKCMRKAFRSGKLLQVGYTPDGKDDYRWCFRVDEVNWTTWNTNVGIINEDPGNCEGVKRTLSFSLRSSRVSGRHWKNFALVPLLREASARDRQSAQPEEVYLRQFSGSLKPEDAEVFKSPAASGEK

## CS(=O)(=O)c1cccc(-c2ccc3[nH]c(COc4ccc(C(F)(F)F)cc4)nc3c2)c1 [Cpd 99, 5-(3-methanesulfonyl-phenyl)-2-(4-trifluoromethyl-phenoxymethyl)-1H-benzoimidazole]
  inhibition at 0.5 µM: 14%

## CS(=O)(=O)c1ccc(-c2ccc3[nH]c(COc4ccc(C(F)(F)F)cc4)nc3c2)cc1 [Cpd 100, 5-(4-methanesulfonyl-phenyl)-2-(4-trifluoromethyl-phenoxymethyl)-1H-benzoimidazole]
  inhibition at 0.5 µM: 13%

## CS(=O)(=O)Nc1cccc(-c2ccc3[nH]c(COc4ccc(C(F)(F)F)cc4)nc3c2)c1 [Cpd 102, N-{3-[2-(4-trifluoromethyl-phenoxymethyl)-1H-benzoimidazol-5-yl]-phenyl}-methanesulfonamide]
  inhibition at 0.5 µM: 8%

## CS(=O)(=O)Nc1ccc(-c2ccc3[nH]c(COc4ccc(C(F)(F)F)cc4)nc3c2)cc1 [Cpd 103, N-{4-[2-(4-trifluoromethyl-phenoxymethyl)-1H-benzoimidazol-5-yl]-phenyl}-methanesulfonamide]
  inhibition at 0.5 µM: 7%

## NS(=O)(=O)c1cccc(-c2ccc3[nH]c(COc4ccc(C(F)(F)F)cc4)nc3c2)c1 [Cpd 104, 3-[2-(4-trifluoromethyl-phenoxymethyl)-1H-benzoimidazol-5-yl]-benzenesulfonamide]
  inhibition at 0.5 µM: 8%

## NS(=O)(=O)c1ccc(-c2ccc3[nH]c(COc4ccc(C(F)(F)F)cc4)nc3c2)cc1 [Cpd 105, 4-[2-(4-trifluoromethyl-phenoxymethyl)-1H-benzoimidazol-5-yl]-benzenesulfonamide]
  inhibition at 0.5 µM: 7%

## CN(C)S(=O)(=O)c1ccccc1-c1ccc2[nH]c(COc3ccc(C(F)(F)F)cc3)nc2c1 [Cpd 106, N,N-dimethyl-2-[2-(4-trifluoromethyl-phenoxymethyl)-1H-benzoimidazol-5-yl]-benzenesulfonamide]
  IC50: 3 nM
  inhibition at 0.5 µM: 94%

## Cc1ccccc1-c1ccc2[nH]c(COc3ccc(C(F)(F)F)cc3)nc2c1 [Cpd 107, 5-o-tolyl-2-(4-trifluoromethyl-phenoxymethyl)-1H-benzoimidazole]
  inhibition at 0.5 µM: 16%

## Cc1cccc(-c2ccc3[nH]c(COc4ccc(C(F)(F)F)cc4)nc3c2)c1 [Cpd 108, 5-m-tolyl-2-(4-trifluoromethyl-phenoxymethyl)-1H-benzoimidazole]
  inhibition at 0.5 µM: 10%

## Cc1ccc(-c2ccc3[nH]c(COc4ccc(C(F)(F)F)cc4)nc3c2)cc1 [Cpd 109, 5-p-tolyl-2-(4-trifluoromethyl-phenoxymethyl)-1H-benzoimidazole]
  inhibition at 0.5 µM: 3%

## CC(O)c1ccccc1-c1ccc2[nH]c(COc3ccc(C(F)(F)F)cc3)nc2c1 (centres unmarked) [Cpd 110, 1-{2-[2-(4-trifluoromethyl-phenoxymethyl)-1H-benzoimidazol-5-yl]-phenyl}-ethanol]
  IC50: 58 nM
  inhibition at 0.5 µM: 98%

## CC(O)c1cccc(-c2ccc3[nH]c(COc4ccc(C(F)(F)F)cc4)nc3c2)c1 (centres unmarked) [Cpd 111, 1-{3-[2-(4-trifluoromethyl-phenoxymethyl)-1H-benzoimidazol-5-yl]-phenyl}-ethanol]
  inhibition at 0.5 µM: 18%

## CC(O)c1ccc(-c2ccc3[nH]c(COc4ccc(C(F)(F)F)cc4)nc3c2)cc1 (centres unmarked) [Cpd 112, 1-{4-[2-(4-trifluoromethyl-phenoxymethyl)-1H-benzoimidazol-5-yl]-phenyl}-ethanol]
  inhibition at 0.5 µM: 1%

## CC(=O)Nc1ccccc1-c1ccc2[nH]c(COc3ccc(C(F)(F)F)cc3)nc2c1 [Cpd 113, N-{2-[2-(4-trifluoromethyl-phenoxymethyl)-1H-benzoimidazol-5-yl]-phenyl}-acetamide]
  inhibition at 0.5 µM: 42%

## CC(=O)Nc1cccc(-c2ccc3[nH]c(COc4ccc(C(F)(F)F)cc4)nc3c2)c1 [Cpd 114, N-{3-[2-(4-trifluoromethyl-phenoxymethyl)-1H-benzoimidazol-5-yl]-phenyl}-acetamide]
  inhibition at 0.5 µM: 6%

## CC(=O)Nc1ccc(-c2ccc3[nH]c(COc4ccc(C(F)(F)F)cc4)nc3c2)cc1 [Cpd 115, N-{4-[2-(4-trifluoromethyl-phenoxymethyl)-1H-benzoimidazol-5-yl]-phenyl}-acetamide]
  inhibition at 0.5 µM: 14%

## OCc1ccccc1-c1ccc2[nH]c(COc3ccc(C(F)(F)F)cc3)nc2c1 [Cpd 116, {2-[2-(4-trifluoromethyl-phenoxymethyl)-1H-benzoimidazol-5-yl]-phenyl}-methanol]
  IC50: 8.1 nM
  inhibition at 0.5 µM: 99%

## OCc1cccc(-c2ccc3[nH]c(COc4ccc(C(F)(F)F)cc4)nc3c2)c1 [Cpd 117, {3-[2-(4-trifluoromethyl-phenoxymethyl)-1H-benzoimidazol-5-yl]-phenyl}-methanol]
  inhibition at 0.5 µM: 13%

## OCc1ccc(-c2ccc3[nH]c(COc4ccc(C(F)(F)F)cc4)nc3c2)cc1 [Cpd 118, {4-[2-(4-trifluoromethyl-phenoxymethyl)-1H-benzoimidazol-5-yl]-phenyl}-methanol]
  inhibition at 0.5 µM: 2%

## Oc1ccccc1-c1ccc2[nH]c(COc3ccc(C(F)(F)F)cc3)nc2c1 [Cpd 119, 2-[2-(4-trifluoromethyl-phenoxymethyl)-1H-benzoimidazol-5-yl]-phenol]
  inhibition at 0.5 µM: 14%

## Oc1cccc(-c2ccc3[nH]c(COc4ccc(C(F)(F)F)cc4)nc3c2)c1 [Cpd 120, 3-[2-(4-trifluoromethyl-phenoxymethyl)-1H-benzoimidazol-5-yl]-phenol]
  inhibition at 0.5 µM: 15%

## Oc1ccc(-c2ccc3[nH]c(COc4ccc(C(F)(F)F)cc4)nc3c2)cc1 [Cpd 121, 4-[2-(4-trifluoromethyl-phenoxymethyl)-1H-benzoimidazol-5-yl]-phenol]
  inhibition at 0.5 µM: 9%

## Nc1ccccc1-c1ccc2[nH]c(COc3ccc(C(F)(F)F)cc3)nc2c1 [Cpd 122, 2-[2-(4-trifluoromethyl-phenoxymethyl)-1H-benzoimidazol-5-yl]-phenylamine]
  inhibition at 0.5 µM: 21%

## Nc1cccc(-c2ccc3[nH]c(COc4ccc(C(F)(F)F)cc4)nc3c2)c1 [Cpd 123, 3-[2-(4-trifluoromethyl-phenoxymethyl)-1H-benzoimidazol-5-yl]-phenylamine]
  inhibition at 0.5 µM: 7%

## Nc1ccc(-c2ccc3[nH]c(COc4ccc(C(F)(F)F)cc4)nc3c2)cc1 [Cpd 124, 4-[2-(4-trifluoromethyl-phenoxymethyl)-1H-benzoimidazol-5-yl]-phenylamine]
  inhibition at 0.5 µM: 12%

## CNS(=O)(=O)c1ccc(-c2ccc3[nH]c(COc4ccc(C(F)(F)F)cc4)nc3c2)cc1 [Cpd 125, N-methyl-4-[2-(4-trifluoromethyl-phenoxymethyl)-1H-benzoimidazol-5-yl]-benzenesulfonamide]
  inhibition at 0.5 µM: 11%

## FC(F)(F)c1ccc(OCc2nc3cc(-c4ccccc4)ccc3[nH]2)cc1 [Cpd 126, 5-phenyl-2-(4-trifluoromethyl-phenoxymethyl)-1H-benzoimidazole]
  inhibition at 0.5 µM: 4%

## COC(=O)c1ccccc1-c1ccc2[nH]c(COc3ccc(C(F)(F)F)cc3)nc2c1 [Cpd 127, 2-[2-(4-trifluoromethyl-phenoxymethyl)-1H-benzoimidazol-5-yl]-benzoic acid methyl ester]
  IC50: 24.3 nM
  inhibition at 0.5 µM: 85%

## CN(C)S(=O)(=O)c1cccc(-c2ccc3[nH]c(COc4ccc(C(F)(F)F)cc4)nc3c2)c1 [Cpd 128, N,N-dimethyl-3-[2-(4-trifluoromethyl-phenoxymethyl)-1H-benzoimidazol-5-yl]-benzenesulfonamide]
  inhibition at 0.5 µM: 13%

## CN(C)S(=O)(=O)c1ccc(-c2ccc3[nH]c(COc4ccc(C(F)(F)F)cc4)nc3c2)cc1 [Cpd 129, N,N-dimethyl-4-[2-(4-trifluoromethyl-phenoxymethyl)-1H-benzoimidazol-5-yl]-benzenesulfonamide]
  inhibition at 0.5 µM: 8%

## COC(=O)c1cccc(-c2ccc3[nH]c(COc4ccc(C(F)(F)F)cc4)nc3c2)c1 [Cpd 130, 3-[2-(4-trifluoromethyl-phenoxymethyl)-1H-benzoimidazol-5-yl]-benzoic acid methyl ester]
  inhibition at 0.5 µM: 11%

## COC(=O)c1ccc(-c2ccc3[nH]c(COc4ccc(C(F)(F)F)cc4)nc3c2)cc1 [Cpd 131, 4-[2-(4-trifluoromethyl-phenoxymethyl)-1H-benzoimidazol-5-yl]-benzoic acid methyl ester]
  inhibition at 0.5 µM: 5%

## NS(=O)(=O)c1ccc(C(F)(F)F)cc1-c1ccc2[nH]c(COc3ccc(C(F)(F)F)cc3)nc2c1 [Cpd 132, 4-trifluoromethyl-2-[2-(4-trifluoromethyl-phenoxymethyl)-1H-benzoimidazol-5-yl]-benzenesulfonamide]
  IC50: 85 nM
  inhibition at 0.5 µM: 100%

## NS(=O)(=O)c1cc(C(F)(F)F)ccc1-c1ccc2[nH]c(COc3ccc(C(F)(F)F)cc3)nc2c1 [Cpd 133, 5-trifluoromethyl-2-[2-(4-trifluoromethyl-phenoxymethyl)-1H-benzoimidazol-5-yl]-benzenesulfonamide]
  IC50: 105 nM
  inhibition at 0.5 µM: 92%

## NS(=O)(=O)c1ccc(F)cc1-c1ccc2[nH]c(COc3ccc(C(F)(F)F)cc3)nc2c1 [Cpd 134, 4-fluoro-2-[2-(4-trifluoromethyl-phenoxymethyl)-1H-benzoimidazol-5-yl]-benzenesulfonamide]
  IC50: 16 nM
  inhibition at 0.5 µM: 98%

## NS(=O)(=O)c1c(F)cc(F)cc1-c1ccc2[nH]c(COc3ccc(C(F)(F)F)cc3)nc2c1 [Cpd 135, 2,4-difluoro-6-[2-(4-trifluoromethyl-phenoxymethyl)-1H-benzoimidazol-5-yl]-benzenesulfonamide]
  IC50: 47 nM
  inhibition at 0.5 µM: 100%

## NS(=O)(=O)c1ccccc1-c1ccc2[nH]c(NCc3ccc(C(F)(F)F)cc3)nc2c1 [Cpd 136, 2-[2-(4-trifluoromethyl-benzylamino)-1H-benzoimidazol-5-yl]-benzenesulfonamide]
  IC50: 68 nM
  inhibition at 0.5 µM: 99%

## CN(Cc1ccc(C(F)(F)F)cc1)c1nc2cc(-c3ccccc3S(N)(=O)=O)ccc2[nH]1 [Cpd 137, 2-{2-[methyl-(4-trifluoromethyl-benzyl)-amino]-1H-benzoimidazol-5-yl}-benzenesulfonamide]
  inhibition at 0.5 µM: 37%

Reference: US7612211B2, “Benzimidazole TRPV1 inhibitors” (Janssen Pharmaceutica N.V., priority 2006, dated 2009)
